PubChem BioAssay (NCI)
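Assay format: 96-well plates, 48-hour exposure. GI50 marks 50% less growth. TGI: concentration producing complete growth inhibition.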

Key:
Test in all cases: NCI anticancer screen, dose series, 48 h
OVCAR-5 ovarian = test system: OVCAR-5 ovarian
HCT-15 colon = test system: HCT-15 colon
K-562 leukemia = test system: K-562 leukemia
CCRF-CEM leukemia = test system: CCRF-CEM leukemia
SW-620 colon = test system: SW-620 colon
HCC-2998 colon = test system: HCC-2998 colon
SK-MEL-28 melanoma = test system: SK-MEL-28 melanoma
UO-31 renal = test system: UO-31 renal
OVCAR-4 ovarian = test system: OVCAR-4 ovarian
COLO 205 colon = test system: COLO 205 colon

SMILES	GI50 (OVCAR-5 ovarian)	TGI (OVCAR-5 ovarian)	GI50 (HCT-15 colon)	TGI (HCT-15 colon)	GI50 (K-562 leukemia)	TGI (K-562 leukemia)	GI50 (CCRF-CEM leukemia)	TGI (CCRF-CEM leukemia)	GI50 (SW-620 colon)	TGI (SW-620 colon)	GI50 (HCC-2998 colon)	TGI (HCC-2998 colon)	GI50 (SK-MEL-28 melanoma)	TGI (SK-MEL-28 melanoma)	GI50 (UO-31 renal)	TGI (UO-31 renal)	GI50 (OVCAR-4 ovarian)	TGI (OVCAR-4 ovarian)	GI50 (COLO 205 colon)	TGI (COLO 205 colon)
Nc1nc(OCc2cc(Br)cs2)c2[nH]cnc2n1	29.8 µM	> 100 µM	18.4 µM	> 100 µM	29.7 µM	> 100 µM	37.5 µM	> 100 µM	40.2 µM	> 100 µM	36.2 µM	> 100 µM	29.3 µM	> 100 µM	11.1 µM	60.4 µM	24.9 µM	> 100 µM	34 µM	> 100 µM
O=C(c1ccccc1)c1ccc(Oc2ccc([N+](=O)[O-])cc2[N+](=O)[O-])cc1	3.43 µM	24.1 µM	3.48 µM	> 100 µM	2.63 µM	> 100 µM	2.89 µM	> 100 µM	4.36 µM	23.7 µM	11.4 µM	25.3 µM	7.03 µM	36.7 µM	2.05 µM	7.76 µM	4.18 µM	87.4 µM	2.4 µM	5.46 µM
NS(=O)(=O)c1ccc(NC2=CC(=O)C(=O)c3ccccc32)cc1		> 100 µM		> 100 µM		> 100 µM		> 100 µM		> 100 µM		> 100 µM		> 100 µM		> 100 µM		> 100 µM		> 100 µM
CCOC(=O)C1C2CCC(C2)C1(CCl)C(=O)OCC (stereo not given)		> 100 µM		> 100 µM		> 100 µM		> 100 µM		> 100 µM		> 100 µM		> 100 µM		> 100 µM		> 100 µM		> 100 µM
Clc1ccc2c(c1)N(c1ncnc3ccc(-c4cnc5[nH]ccc5c4)cc13)CC2	0.898 µM	22 µM	1.06 µM	12.5 µM	0.542 µM	> 100 µM	1.71 µM	> 100 µM	1.38 µM	14.7 µM	11.3 µM	68.9 µM	10.2 µM	27.7 µM	0.484 µM	16.7 µM	1.12 µM	16.9 µM	3.21 µM	> 100 µM
NNC(=O)CNC(=O)c1ccc(Cl)cc1Cl		> 100 µM		> 100 µM		> 100 µM		> 100 µM		33.3 µM		> 100 µM		> 100 µM		> 100 µM		> 100 µM		> 100 µM
COc1cc(-c2nc3ccccc3s2)ccc1NC(=O)COc1ccc(Cl)cc1	13.4 µM	> 100 µM	> 100 µM	> 100 µM	5.35 µM	> 100 µM	> 100 µM	> 100 µM	53.7 µM	> 100 µM	18.6 µM	> 100 µM	6.33 µM	71.3 µM	1.49 µM	> 100 µM	3.9 µM	93.2 µM	6.45 µM	> 100 µM
CCCCCCCCOCC(O)COC(=O)CCCCCCC (stereo not given)		> 100 µM		> 100 µM		> 100 µM		35.7 µM		> 100 µM		> 100 µM		> 100 µM		> 100 µM		> 100 µM		> 100 µM
